# In patent US20150148235A1, “HERBICIDE-RESISTANT SUNFLOWER PLANTS WITH MULTIPLE HERBICIDE RESISTANT ALLELES OF AHASL1 AND METHODS OF USE” (NIDERA S.A., priority 2013, published 2015):
# Marks after values point to notes of the source that are not given here.
# Tested on: sunflower lines and hybrids carrying A122T and/or A205V AHASL1 alleles
# Assay: Greenhouse whole-plant response to imazapyr doses (height, Phytotoxicity Index, dry biomass), Example 2
# Type: in vivo, Helianthus annuus
# Conditions: 14 DAT; for Biomass weight reduction: heterozygous A122T/A205V
# Description: Seeds were sown in Petri dishes and, after germination, plantlets were transplanted to pots of 10 cm of diameter in a potting media consisting of equal parts of vermiculite, soil and sand. Plants were grown in a greenhouse under natural light conditions supplemented with 400 W sodium halide lamps to provide a 16 hr daylength. Day/night temperatures were 25 and 20° C., respectively. At the V2-V4 stage (Schneiter & Miller (1981) Crop Sci. 21:901-903) 10 plants of each genotype were randomly assigned to each treatment consisting of eight imazapyr doses (0, 40, 80, 160, 240, 320, 400 and 480 g ai/ha, corresponding to untreated, 0.5×, 1×, 2×, 3×, 4×, 5× and 6×, respectively), and a zero-time biomass determination. Experiment was arranged as a randomized block design with a full factorial (sunflower line×treatment) arrangement of treatments and 10 replications.
# On the day of herbicide application ten plants of each genotype were cut at the cotyledonal node and dried at 60° C. for 48 hrs for zero-time dried weight determination.
# The remaining plants were maintained for 14 days after imazapyr treatment (DAT) and their height, Phytotoxicity Index (PI) and above ground dry biomass were determined Height was determined as the distance between the cotyledonal node and the apex of each plant. Above ground biomass data from each line were converted to biomass accumulation after application by subtracting the appropriate average zero-time biomass from each sample. Dry biomass data were converted to percentages of the untreated control plants within each line to allow direct comparisons between groups.
# [1] = H4 (A122T/A205V hybrid), 4x=320 g ai/ha
# [2] = L1 (A205V line), 0.5x=40 g ai/ha
# [3] = L1 (A205V line), 3x=240 g ai/ha
# [4] = L2 (A205V line), 5x=400 g ai/ha
# [5] = L3 (cmsGM40, A122T line), 2x=160 g ai/ha
# [6] = L3 (cmsGM40, A122T line), 4x=320 g ai/ha
# [7] = L4 (A122T line), 0.5x=40 g ai/ha
# [8] = L4 (A122T line), 2x=160 g ai/ha
# [9] = L4 (A122T line), 3x=240 g ai/ha
# [10] = L5 (WT susceptible), 1x=80 g ai/ha
# [11] = L5 (WT susceptible), 2x=160 g ai/ha
# [12] = L5 (WT susceptible), 3x=240 g ai/ha
# [13] = L5 (WT susceptible), 4x=320 g ai/ha
# [14] = L5 (WT susceptible), 5x=400 g ai/ha
# [15] = L5 (WT susceptible), 6x=480 g ai/ha
# [16] = mean of A122T genotypes (H2,L3,L4), 2x=160 g ai/ha
# [17] = mean of A122T genotypes (H2,L3,L4), 3x=240 g ai/ha
structure (smiles),measurement,setting,value
CC(C)C1(C)N=C(c2ncccc2C(=O)O)NC1=O (stereo not drawn) [imazapyr],biomass accumulation (dry),[1],85.0 % of untreated
same,plant height,[1],95.0 % of untreated
same,Phytotoxicity Index (scale 0-9),"H4 (A122T/A205V hybrid), 5x=400 g ai/ha",0.2
same,Phytotoxicity Index (scale 0-9),"H4 (A122T/A205V hybrid), 6x=480 g ai/ha",0.0
same,Phytotoxicity Index (scale 0-9),[2],0
same,plant height,[2],100.0 % of untreated
same,Phytotoxicity Index (scale 0-9),"L1 (A205V line), 1x=80 g ai/ha",0
same,plant height,"L1 (A205V line), 1x=80 g ai/ha",100.0 % of untreated
same,Phytotoxicity Index (scale 0-9),"L1 (A205V line), 2x=160 g ai/ha",1.6
same,Phytotoxicity Index (scale 0-9),[3],5.1
same,plant height,[3],50.0 % of untreated
same,Phytotoxicity Index (scale 0-9),"L1 (A205V line), 4x=320 g ai/ha",8.4
same,Phytotoxicity Index (scale 0-9),"L1 (A205V line), 5x=400 g ai/ha",8.9
same,Phytotoxicity Index (scale 0-9),"L1 (A205V line), 6x=480 g ai/ha",8.9
same,Phytotoxicity Index (scale 0-9),"L2 (A205V line), 0.5x=40 g ai/ha",0
same,Phytotoxicity Index (scale 0-9),"L2 (A205V line), 1x=80 g ai/ha",0
same,biomass accumulation (dry),"L2 (A205V line), 1x=80 g ai/ha",85.0 % of untreated
same,Phytotoxicity Index (scale 0-9),"L2 (A205V line), 2x=160 g ai/ha",3.1
same,Phytotoxicity Index (scale 0-9),"L2 (A205V line), 3x=240 g ai/ha",3.9
same,Phytotoxicity Index (scale 0-9),"L2 (A205V line), 4x=320 g ai/ha",5.9
same,Phytotoxicity Index (scale 0-9),[4],6.9
same,plant height,[4],26.0 % of untreated
same,Phytotoxicity Index (scale 0-9),"L2 (A205V line), 6x=480 g ai/ha",6.7
same,Phytotoxicity Index (scale 0-9),"L3 (cmsGM40, A122T line), 0.5x=40 g ai/ha",0.4
same,Phytotoxicity Index (scale 0-9),"L3 (cmsGM40, A122T line), 1x=80 g ai/ha",0.4
same,Phytotoxicity Index (scale 0-9),[5],0.4
same,plant height,[5],92.0 % of untreated
same,Phytotoxicity Index (scale 0-9),"L3 (cmsGM40, A122T line), 3x=240 g ai/ha",0.5
same,Phytotoxicity Index (scale 0-9),[6],1.0
same,biomass accumulation (dry),[6],75.0 % of untreated
same,Phytotoxicity Index (scale 0-9),"L3 (cmsGM40, A122T line), 5x=400 g ai/ha",2.0
same,Phytotoxicity Index (scale 0-9),"L3 (cmsGM40, A122T line), 6x=480 g ai/ha",2.5
same,Phytotoxicity Index (scale 0-9),[7],0.0
same,biomass accumulation (dry),[7],100.0 % of untreated
same,plant height,[7],100.0 % of untreated
same,Phytotoxicity Index (scale 0-9),"L4 (A122T line), 1x=80 g ai/ha",0.0
same,plant height,"L4 (A122T line), 1x=80 g ai/ha",100.0 % of untreated
same,Phytotoxicity Index (scale 0-9),[8],0.0
same,biomass accumulation (dry),[8],97.0 % of untreated
same,Phytotoxicity Index (scale 0-9),[9],0.0
same,plant height,[9],97.0 % of untreated
same,Phytotoxicity Index (scale 0-9),"L4 (A122T line), 4x=320 g ai/ha",0.0
same,Phytotoxicity Index (scale 0-9),"L4 (A122T line), 5x=400 g ai/ha",0.0
same,Phytotoxicity Index (scale 0-9),"L4 (A122T line), 6x=480 g ai/ha",0.5
same,Phytotoxicity Index (scale 0-9),"L5 (WT susceptible), 0.5x=40 g ai/ha",9
same,Phytotoxicity Index (scale 0-9),[10],9
same,biomass accumulation (dry),[10],15.0 % of untreated
same,Phytotoxicity Index (scale 0-9),[11],9
same,biomass accumulation (dry),[11],15.0 % of untreated
same,Phytotoxicity Index (scale 0-9),[12],9
same,biomass accumulation (dry),[12],15.0 % of untreated
same,Phytotoxicity Index (scale 0-9),[13],9
same,biomass accumulation (dry),[13],15.0 % of untreated
same,Phytotoxicity Index (scale 0-9),[14],9
same,biomass accumulation (dry),[14],15.0 % of untreated
same,Phytotoxicity Index (scale 0-9),[15],9
same,biomass accumulation (dry),[15],15.0 % of untreated
same,Height reduction,"heterozygotes A122T/A205V, 0.5x",0.6%
same,Biomass weight reduction,0.5x,0.3%
same,Biomass weight reduction,6x,33%
same,Phytotoxicity Index (scale 0-9),"mean of A122T genotypes (H2,L3,L4), 0.5x=40 g ai/ha",0.3
same,Phytotoxicity Index (scale 0-9),"mean of A122T genotypes (H2,L3,L4), 1x=80 g ai/ha",0.3
same,Phytotoxicity Index (scale 0-9),[16],0.3
same,plant height,[16],98.0 % of untreated
same,Phytotoxicity Index (scale 0-9),[17],0.3
same,biomass accumulation (dry),[17],90.0** % of untreated
same,Phytotoxicity Index (scale 0-9),"mean of A122T genotypes (H2,L3,L4), 4x=320 g ai/ha",0.5
same,Phytotoxicity Index (scale 0-9),"mean of A122T genotypes (H2,L3,L4), 5x=400 g ai/ha",0.8
same,Phytotoxicity Index (scale 0-9),"mean of A122T genotypes (H2,L3,L4), 6x=480 g ai/ha",1.2
same,Phytotoxicity Index (scale 0-9),"mean of A122T/A205V genotypes (H3,H4), 0.5x=40 g ai/ha",0.5
same,Phytotoxicity Index (scale 0-9),"mean of A122T/A205V genotypes (H3,H4), 1x=80 g ai/ha",0.5
same,Phytotoxicity Index (scale 0-9),"mean of A122T/A205V genotypes (H3,H4), 2x=160 g ai/ha",0.5
same,Phytotoxicity Index (scale 0-9),"mean of A122T/A205V genotypes (H3,H4), 3x=240 g ai/ha",0.5
same,Phytotoxicity Index (scale 0-9),"mean of A122T/A205V genotypes (H3,H4), 4x=320 g ai/ha",0.5
same,Phytotoxicity Index (scale 0-9),"mean of A122T/A205V genotypes (H3,H4), 5x=400 g ai/ha",0.6
same,Phytotoxicity Index (scale 0-9),"mean of A122T/A205V genotypes (H3,H4), 6x=480 g ai/ha",1
same,Phytotoxicity Index (scale 0-9),"mean of A205V genotypes (H1,L1,L2), 2x=160 g ai/ha",2.2*
same,Phytotoxicity Index (scale 0-9),"mean of A205V genotypes (H1,L1,L2), 3x=240 g ai/ha",5.1**
same,Phytotoxicity Index (scale 0-9),"mean of A205V genotypes (H1,L1,L2), 4x=320 g ai/ha",7.4**
same,Phytotoxicity Index (scale 0-9),"mean of A205V genotypes (H1,L1,L2), 5x=400 g ai/ha",8.2**
same,Phytotoxicity Index (scale 0-9),"mean of A205V genotypes (H1,L1,L2), 6x=480 g ai/ha",8.2**
